According to patent US10995068B2, “Synthetic sphingolipid-like molecules, drugs, methods of their synthesis and methods of treatment” (The Regents of the University of California, priority 2015, dated 2021):

Tests used:
Type in all cases: cell-based
[1] = system: PI(3,5)P2 levels in HeLa cells; test: Measurement of PI(3,5)P2 by HPLC
Procedure: In certain embodiments of the invention, sphingolipid-like molecules mis-localize PIKfyve preventing its association with TRMPL1 and inducing vacuolation, instead of inhibiting PIKfyve kinase activity. While PIKfyve localized to the limiting membrane of YM201636-induced vacuoles as expected, PIKfyve was present in clumps between vacuoles in FTY720-treated cells (FIGS. 57C and 56F).
Measurement of PI(3,5)P2 by HPLC. HeLa cells were rinsed twice with PBS and incubated in for 48 h in inositol labeling medium (inositol-free DMEM containing 5 μg/ml transferrin, 5 μg/ml insulin, 10% dialyzed FCS, 20 mM HEPES, 2 mM L-glutamine), and 10 μCi/ml myo-[2-^3H]inositol. Cells were lysed with 4.5% perchloric acid, scraped, and centrifuged at 14,000×g for 10 min at 4° C. Cell pellets were rinsed with 100 mM EDTA, centrifuged again, and re-suspended in 50 μl of water. To deacylate lipids, 1 ml methanol/40% methylamine/butanol (45.7% methanol, 10.7% methylamine, 11.4% butanol) were added and then the mixture was transferred to a glass vial and incubated at 55° C. for 1 h. After cooling to room temperature, samples were vacuum dried and re-suspended in 0.5 ml water. […] The aqueous phase was vacuum dried and re-suspended in 75 μl water and 50 μl of each sample was analyzed by HPLC. PI(3,5)P2 levels were expressed as a percentage of total phosphatidylinositol.

[2] = system: normal human peripheral blood mononuclear cells (PBMC); test: Colony formation assay, PBMC
Procedure: The difference in sensitivity stems from the inability of neoplastic cells to adapt to decreases of metabolism.
(§1) Cell analysis: Viability and 4F2hc expression are determined by vital dye exclusion and flow cytometry. Oxygen consumption is measured with an XF24 Extracellular Flux Analyzer (Seahorse Bioscience); values are normalized to total protein. Confocal microscopy is performed on either a Zeiss LSM780 or a Nikon Eclipse Ti; vacuolation was monitored using a Nikon TE2000-S equipped with DIC filters. Anchorage-independent growth of SW620 cells is measured in DMEM-10 containing 0.35% agarose with a 0.5% agarose bottom layer. PBMNCs are obtained from the normal blood donor program run by the CTSA-supported Institute for Clinical and Translational Science at UCI under IRB protocols 2015-1883 (Edinger) and 2001-2058 (ICTS). […] Plates were incubated at 37° C. in a humidified atmosphere containing 5% CO2 and colonies were counted after 12 days.
Cell culture and reagents. […] Cell viability was measured by vital dye exclusion using either propidium iodide or DAPI at 1 μg/ml. Analysis of cell surface 4F2hc levels with PE-conjugated anti-CD98 was restricted to viable cells as determined by DAPI exclusion. Anchorage-independent growth of SW620 cells was measured in DMEM-10 containing 0.35% low melt agarose with a 0.5% agarose bottom layer. […]

[3] = system: cellular oxygen consumption; test: Cellular oxygen consumption; conditions: XF24 Extracellular Flux Analyzer
Source text: Cells treated with oligomycin or rotenone/antimycin A, as expected, compensated for the loss of oxidative phosphorylation by increasing glycolysis, reducing the bound NADH fraction (FIG. 51F). Conversely, the glycolysis inhibitor 2-DG and starvation increased oxidative phosphorylation and the bound to free NADH ratio. SH-BC-893 mimicked the effect of amino acid and glucose starvation, increasing the bound NADH fraction and cellular oxygen consumption (FIGS. 51F and 51G). Cells responded similarly to the anti-inflammatory drug FTY720. Thus, the metabolic changes triggered by SH-BC-893 parallel those seen in cells with restricted access to key metabolic substrates.
as §1, with “layer.” for “layer. PBMNCs are obtained from the normal blood donor program run by the CTSA-supported Institute for Clinical and Translational Science at UCI under IRB protocols 2015-1883 (Edinger) and 2001-2058 (ICTS).”

| Structure (SMILES) | PI(3,5)P2 levels [1] | sensitivity in colony formation assays [2] | cellular oxygen consumption [3] |
| --- | --- | --- | --- |
| CCCCCCCCc1ccc(CCC(N)(CO)CO)cc1.Cl [FTY720, 2-Amino-2-[2-(4-octylphenyl)ethyl]propane 1,3-diol hydrochloride, reference compound] | did not inhibit PIKfyve kinase activity or reduce PI(3,5)P2 levels | – | – |
| CCCCCCCCc1ccc([C@H]2CCN[C@@H]2CO)cc1.Cl [Compound 5, (2S,3R)-2-(hydroxymethyl)-3-(4-octylphenyl)Pyrrolidinium chloride] | – | resistant | increasing |
